Patent publication EP0528699B1, “Saishin N derivatives, process for their preparation and anti-ulcer agents containing them” (TOKYO TANABE COMPANY LIMITED, priority 1991, dated 1993)
Where two headings read alike, the source gives them in different places.

System: Hydrochloric acid-Ethanol-Induced Ulcers
Experiment: Hydrochloric acid-Ethanol-Induced Ulcers
Assay type: in vivo, male Wister rats
Conditions: Rattus norvegicus, intraduodenal, read-out: Inhibition ratio(%); for inhibition in vivo at 10 mg/kg: dose 10 mg/kg intraduodenally one hour before hydrochloric acid - 60% ethanol; for inhibition in vivo at 5 mg/kg: dose 5 mg/kg intraduodenally one hour before hydrochloric acid - 60% ethanol
Experimental: Experiments on Hydrochloric acid-Ethanol-Induced Ulcers, Aspirin-Induced Ulcers, Water-Immersion stress-Induced Ulcers, Shay's Ulcers and Serotonin-Induced Ulcers were carried out using male Wister rats weighing about 200g in groups of six. Experiments on Ischemia-Reperfusion -Induced Gastric Lesions were carried out using male SD rats weighing about 250g in groups of six. Other than for the tests on Ischemia-Reperfusion-Induced Gastric Lesions Models, the test compounds were prepared by mixing thoroughly with polyethyleneglycol and 0.5% sodium carboxymethyl cellulose solution and emulsifying vigorously. Activities against respective ulcer models were evaluated by an inhibiting ratio obtained by dividing the difference between the ulceration indexes of the non-administered group and the test compound group by the non-administered group.
To each rat which had been fasted for 24 hours was orally administered 0.5ml of a mixed solution of 150 mM hydrochloric acid - 60% ethanol per 100g of weight. Each rat was slaughtered after one hour, a length of ulcer formed at the fundus gland area of stomach was measured and ulceration index was calculated based on the length. The test compound was administered intraduodenally one hour or three hours before the administration of mixed solution of hydrochloric acid - 60% ethanol.

[1] = 3 h, Table 1, dose 20 mg/kg intraduodenally three hours before hydrochloric acid - 60% ethanol

| SMILES | inhibition in vivo at 20 mg/kg [1] | further results |
| --- | --- | --- |
| CC1=CC(OC(=O)c2ccco2)C(O)C(C)(C)CC1=O (stereo not drawn) [AU403, 4-(2-furoyloxy)-5-hydroxy-2,6,6-trimethyl-2-cyclohepten-1-one] | 31% | – |
| COC1C(OC(=O)c2ccc(N)cc2)C=C(C)C(=O)CC1(C)C (stereo not drawn) [AU239, 4-(4-aminobenzoyloxy)-5-methoxy-2,6,6-trimethyl-2-cyclohepten-1-one] | 41% | – |
| CC1=CC(O)C(OC(=O)c2ccc(N)cc2N)C(C)(C)CC1=O (stereo not drawn) [AU241, 5-(2,4-diaminobenzoyloxy)-4-hydroxy-2,6,6-trimethyl-2-cyclohepten-1-one] | 37% | – |
| CC1=CC(OC(=O)C=Cc2ccccc2)C(O)C(C)(C)CC1=O (stereo not drawn) [AU206, 4-cinnamoyloxy-5-hydroxy-2,6,6-trimethyl-2-cyclohepten-1-one] | 72% | – |
| CC(=O)OC1C=C(C)C(=O)CC(C)(C)C1OC(=O)C=Cc1ccccc1 (stereo not drawn) [AU207, 4-acetoxy-5-cinnamoyloxy-2,6,6-trimethyl-2-cyclohepten-1-one] | 56% | – |
| CC1=CC(=O)C2OC1(OC(=O)c1ccccc1)CC2(C)C (stereo not drawn) [AU168, 1-benzoyloxy-2,6,6-trimethyl-8-oxabicyclo [3.2.1] oct-2-en-4-one] | 46% | – |
| CC1=CC(O)C(OC(=O)c2ccccc2)C(C)(C)CC1=O (stereo not drawn) [AU183, 5-benzoyloxy-4-hydroxy-2,6,6-trimethyl-2-cyclohepten-1-one] | 73% | – |
| CC1=CC(OCc2ccccc2)C(O)C(C)(C)CC1=O (stereo not drawn) [AU156, 4-benzyloxy-5-hydroxy-2,6,6-trimethyl-2-cyclohepten-1-one] | – | inhibition in vivo at 10 mg/kg (1 h, Table 2): 97% |
| CC(=O)Oc1ccc(C(=O)OC2C=C(C)C(=O)CC(C)(C)C2O)cc1 (stereo not drawn) [AU217, 4-(4-acetoxybenzoyloxy)-5-hydroxy-2,6,6-trimethyl-2-cyclohepten-1-one] | 48% | – |
| CC1=CC(OC(=O)c2ccc(N(C)C)cc2)C(O)C(C)(C)CC1=O (stereo not drawn) [AU236, 4-(4-dimethylaminobenzoyloxy)-5-hydroxy-2,6,6-trimethyl-2-cyclohepten-1-one] | 45% | – |
| COc1cc(C=CC(=O)OC2C=C(C)C3(OC)CC(C)(C)C2O3)ccc1O (stereo not drawn) [AU417, 4-(4-hydroxy-3-methoxycinnamoyloxy)-1-methoxy-2,6,6-trimethyl-8-oxabicyclo [3.2.1] oct-2-ene] | 69% | – |
| CC1=CC(OC(=O)c2cccc(N)c2)C(O)C(C)(C)CC1=O (stereo not drawn) [AU210, 4-(3-aminobenzoyloxy)-5-hydroxy-2,6,6-trimethyl-2-cyclohepten-1-one] | 26% | – |
| CC1=CC(O)C(OC(=O)c2ccc(Cl)cc2)C(C)(C)CC1=O (stereo not drawn) [AU128, 5-(4-chlorobenzoyloxy)-4-hydroxy-2,6,6-trimethyl-2-cyclohepten-1-one] | 53% | – |
| COC1C=C(C)C(=O)CC(C)(C)C1OC(=O)c1ccccc1C(=O)O (stereo not drawn) [AU218, 5-(2-carboxybenzoyloxy)-4-methoxy-2,6,6-trimethyl-2-cyclohepten-1-one] | 34% | – |
| CC1CC(O)C(OC(=O)c2ccccc2)C(C)(C)CC1=O (stereo not drawn) [AU191, 2,4-cis-5-benzoyloxy-4-hydroxy-2,6,6-trimethyl cycloheptan-1-one] | 53% | – |
| COC1C=C(C)C(=O)CC(C)(C)C1OC(=O)c1ccc(N)c(N)c1 (stereo not drawn) [AU410, 5-(3,4-diaminobenzoyloxy)-4-methoxy-2,6,6-trimethyl-2-cyclohepten-1-one] | 75% | – |
| COC12CC(C)(C)C(O1)C(O)C=C2C (stereo not drawn) [AU152, 1-methoxy-2,6,6-trimethyl-8-oxabicyclo [3.2.1] oct-2-en-4-ol] | – | inhibition in vivo at 20 mg/kg (1 h, Table 2, dose 20 mg/kg intraduodenally one hour before hydrochloric acid - 60% ethanol): 87% |
| COC12CC(C)(C)C(O1)C(OC(=O)C=Cc1ccc(O)cc1)C=C2C (stereo not drawn) [AU508, 4-(4-hydroxycinnamoyloxy)-1-methoxy-2,6,6-trimethyl-8-oxabicyclo [3.2.1] oct-2-ene] | 82% | – |
| CC(=O)OC1C(OC(=O)c2ccccc2)CC(C)C(=O)CC1(C)C (stereo not drawn) [AU194, 2,4-cis-5-acetoxy-4-benzoyloxy-2,6,6-trimethylcycloheptan-1-one] | 23% | – |
| CC1=CC(O)C(OC(=O)c2ccc([N+](=O)[O-])cc2)C(C)(C)CC1=O (stereo not drawn) [AU211, 4-hydroxy-5-(4-nitrobenzoyloxy)-2,6,6-trimethyl-2-cyclohepten-1-one] | 38% | – |
| COc1ccc(COC2CC(C)C(=O)CC(C)(C)C2OC(=O)c2ccccc2)cc1 (stereo not drawn) [AU187, 2,4-cis-5-benzoyloxy-4-(4-methoxybenzyloxy)-2,6,6-trimethylcycloheptan-1-one] | 35% | – |
| CC1=CC(O)C(OC(=O)c2nc[nH]c2C)C(C)(C)CC1=O (stereo not drawn) [AU504, 4-hydroxy-5-(5-methyl-4-imidazolylcarbonyloxy)-2,6,6-trimethyl-2-cyclohepten-1-one] | 39% | – |

| SMILES | inhibition in vivo at 20 mg/kg [1] | further results |
| --- | --- | --- |
| CC1=CC(O)C(OC(=O)c2ccc(N)cc2)C(C)(C)CC1=O (stereo not drawn) [AU216, 5-(4-aminobenzoyloxy)-4-hydroxy-2,6,6-trimethyl-2-cyclohepten-1-one] | 23% | – |
| COC1CC(C)(C)C(OC)C(OC)C=C1C (stereo not drawn) [AU113, 1,4,5-trimethoxy-2,6,6-trimethyl-2-cycloheptene] | 39% | – |
| COC12CC(C)(C)C(O1)C(=O)CC2C (stereo not drawn) [AU163, 1-methoxy-2,6,6-trimethyl-8-oxabicyclo [3.2.1] octan-4-one] | 32% | – |
| CC1=CC(=O)C(OC(=O)c2ccccc2)C(C)(C)CC1=O (stereo not drawn) [AU225, 5-benzoyloxy-2,6,6-trimethyl-2-cyclohepten-1,4-dione] | 36% | – |
| COC12CC(C)(C)C(O1)C(OC(C)=O)C=C2C (stereo not drawn) [AU158, 4-acetoxy-1-methoxy-2,6,6-trimethyl-8-oxabicyclo [3.2.1] oct-2-ene] | – | inhibition in vivo at 5 mg/kg (1 h, Table 2): 33% |
| COC12CC(C)(C)C(O)C(C=C1C)O2 (stereo not drawn) [AU153, 1-methoxy-3,3,7-trimethyl-8-oxabicyclo [3.2.1] oct-6-en-4-ol] | – | inhibition in vivo at 10 mg/kg (1 h, Table 2): 55% |
| CC1=CC(OC(=O)c2ccc(N)cc2N)C(O)C(C)(C)CC1=O (stereo not drawn) [AU242, 4-(2,4-diaminobenzoyloxy)-5-hydroxy-2,6,6-trimethyl-2-cyclohepten-1-one] | 60% | – |
| COC1C(O)C=C(C)C(OC(=O)c2ccccc2)CC1(C)C (stereo not drawn) [AU227, 1-benzoyloxy-5-methoxy-2,6,6-trimethyl-2-cyclohepten-4-ol] | 47% | – |
| COC1C=C(C)C(=O)CC(C)(C)C1OC(=O)Cc1csc(N)n1 (stereo not drawn) [AU243, 5-(2-aminothiazol-4-yl) acetoxy-4-methoxy-2,6,6-trimethyl-2-cyclohepten-1-one] | 29% | – |
| COc1ccc(COC2C=C(C)C(=O)CC(C)(C)C2O)cc1 (stereo not drawn) [AUM09, 5-hydroxy-4-(4-methoxybenzyloxy)-2,6,6-trimethyl-2-cyclohepten-1-one] | 17% | – |
| COC12CC(C)(C)C(O1)C(OC(C)=O)CC2C (stereo not drawn) [AU108A, 2,4-trans-1-methoxy-4-acetoxy-2,6,6-trimethyl-8-oxabicyclo [3.2.1] octane] | 55% | inhibition in vivo at 10 mg/kg (1 h, Table 2): 75% |
| COC1C=C(C)C2(OC)CC(C)(C)C1O2 (stereo not drawn) [AU155, 1,4-dimethoxy-2,6,6-trimethyl-8-oxabicyclo [3. 2. 1] oct-2-ene] | – | inhibition in vivo at 5 mg/kg (1 h, Table 2): 93%; inhibition in vivo at 10 mg/kg (1 h, Table 2): 96% |
| CC1CC(O)C2OC1(OC(=O)c1ccc(N)cc1)CC2(C)C (stereo not drawn) [AU251, 2,4-cis-1-(4-aminobenzoyloxy)-2,6,6-trimethyl-8-oxabicyclo [3.2.1] octan-4-ol] | 30% | – |
| COc1ccc(COC2CC(C)C(=O)CC(C)(C)C2OC(C)=O)cc1 (stereo not drawn) [AU185, 2,4-cis-5-acetoxy-4-(4-methoxybenzyloxy)-2,6,6-trimethylcycloheptan-1-one] | 34% | – |
| COC1C=C(C)C(=O)CC(C)(C)C1OC(=O)c1ccccc1 (stereo not drawn) [AU121, 5-benzoyloxy-4-methoxy-2,6,6-trimethyl-2-cyclohepten-1-one] | 50% | – |
| CC1CC(O)C2OC1(OC(=O)c1ccc([N+](=O)[O-])cc1)CC2(C)C (stereo not drawn) [AU250, 2,4-cis-1-(4-nitrobenzoyloxy):2,6,6-trimethyl-8-oxabicyclo [3.2.1] octan-4-ol] | 36% | – |
| COC1C(OC(=O)c2ccc([N+](=O)[O-])cc2)C=C(C)C(=O)CC1(C)C (stereo not drawn) [AU238, 5-methoxy-4-(4-nitrobenzoyloxy)-2,6,6-trimethyl-2-cyclohepten-1-one] | 40% | – |
| CC(=O)OC1C=C(C)C(=O)CC(C)(C)C1OC(=O)c1ccccc1 (stereo not drawn) [AU189, 4-acetoxy-5-benzoyloxy-2,6,6-trimethyl-2-cyclohepten-1-one] | 63% | – |
| CC(=O)Nc1ccc(C(=O)OC2C=C(C)C(=O)CC(C)(C)C2O)cc1 (stereo not drawn) [AU237, 4-(4-acetamidobenzoyloxy)-5-hydroxy-2,6,6-trimethyl-2-cyclohepten-1-one] | 30% | – |
| CC(=O)OC1C(OC(=O)c2ccccc2)C=C(C)C(=O)CC1(C)C (stereo not drawn) [AU193, 5-acetoxy-4-benzoyloxy-2,6,6-trimethyl-2-cyclohepten-1-one] | 60% | – |
| CC1=CC(O)C(OC(=O)c2cccc(N)c2)C(C)(C)CC1=O (stereo not drawn) [AU209, 5-(3-aminobenzoyloxy)-4-hydroxy-2,6,6-trimethyl-2-cyclohepten-1-one] | 38% | – |
